# Assay results published in article PMC11822212, “High-throughput screening identifies Aurora kinase B as a critical therapeutic target for Merkel cell carcinoma” (Nature Communications, 2025).
# Structures can show the parent of a compound that is named as a salt.
# Legend:
# [1] = system: six MCC cell lines and four control cell lines; test: qHTS cell viability, all 10 cell lines screened; type: cell-based
# [2] = system: MCC cell lines (WAGA, MKL-1, MKL-2, MCC13, MCC26, UISO); test: qHTS cell viability, all six MCC cell lines as a group (mean AUC, MCC.avg); type: cell-based, human; settings: mean AUC of six MCC cell lines
# [3] = system: VN-MCC cell lines (MCC13, MCC26, UISO); test: qHTS cell viability, VN-MCC cell lines as a group (mean AUC, VN.MCC.avg); type: cell-based, human; settings: for VN-MCC_Avg_AUC: mean AUC of VN-MCC cell lines
# [4] = system: MKL-1 cells (VP-MCC); test: qHTS cell viability (CellTiter-Glo, 72 h; primary and follow-up small molecule screen); type: cell-based, human
# [5] = system: WAGA cells (VP-MCC); test: as above; type: cell-based, human
# [6] = system: HACAT cells; test: qHTS cell viability (CellTiter-Glo, 72 h; primary screen), control cell line; type: cell-based, human
# [7] = system: MKL-2 cells (VP-MCC); test: qHTS cell viability (CellTiter-Glo, 72 h; primary and follow-up small molecule screen); type: cell-based, human
# [8] = system: UISO cells (VN-MCC); test: as above; type: cell-based, human
# [9] = system: CRL-7250 cells; test: qHTS cell viability (CellTiter-Glo, 72 h; primary screen), control cell line; type: cell-based
# [10] = system: HEK293T cells; test: as above; type: cell-based, human
# [11] = system: VP-MCC cell lines (WAGA, MKL-1, MKL-2); test: qHTS cell viability, VP-MCC cell lines as a group (mean AUC, VP.MCC.avg); type: cell-based, human; settings: for VP-MCC_Avg_AUC: mean AUC of VP-MCC cell lines
# [12] = system: MCC13 cells (VN-MCC); test: qHTS cell viability (CellTiter-Glo, 72 h; primary and follow-up small molecule screen); type: cell-based, human
# [13] = system: NIH-3T3 cells; test: qHTS cell viability (CellTiter-Glo, 72 h; primary screen), control cell line; type: cell-based, mouse
# [14] = system: MCC26 cells (VN-MCC); test: qHTS cell viability (CellTiter-Glo, 72 h; primary and follow-up small molecule screen); type: cell-based, human
# [15] = system: control cell lines (HACAT, HEK293T, CRL-7250, NIH-3T3); test: qHTS cell viability, control cell lines as a group (mean AUC, Control.avg); type: cell-based; settings: mean AUC of control cell lines
# [16] = NPC library, therapeutic window: Control avg AUC minus MCC avg AUC
# [17] = NPC library, therapeutic window: Control avg AUC minus VN-MCC avg AUC
# [18] = NPC library, qHTS dose-response AUC, MKL1
# [19] = NPC library, qHTS dose-response AUC, WAGA
# [20] = NPC library, qHTS dose-response AUC, HACAT control
# [21] = NPC library, qHTS dose-response AUC, MKL2
# [22] = NPC library, qHTS dose-response AUC, UISO
# [23] = NPC library, qHTS dose-response AUC, CRL7250 control
# [24] = NPC library, qHTS dose-response AUC, HEK293T control
# [25] = NPC library, therapeutic window: Control avg AUC minus VP-MCC avg AUC
# [26] = NPC library, qHTS dose-response AUC, MCC13
# [27] = NPC library, qHTS dose-response AUC, NIH3T3 control
# [28] = NPC library, qHTS dose-response AUC, MCC26
# [29] = MIPE library, 11-point DRC, sheet S2D
# [30] = MIPE library, 11-point DRC, sheet S2E
# [31] = MIPE library, 11-point DRC, control cell line, sheet S2D
# [32] = MIPE library, 11-point DRC, control cell line, sheet S2E
structure (smiles),measurement,setting,value
Cc1ccsc1C(=CCCN1CCC[C@@H](C(=O)O)C1)c1sccc1C [Tiagabine hydrochloride],Control-MCC,[1]; [16],34.0617
same,MCC_Avg_AUC,[2]; NPC library,423.502
same,VN-MCC_Avg_AUC,[3]; NPC library,526.106
same,Control-VN-MCC,[3]; [17],-68.5423
same,MKL1_AUC,[4]; [18],342.483
same,WAGA_AUC,[5]; [19],356.213
same,HACAT_AUC,[6]; [20],471.067
same,MKL2_AUC,[7]; [21],263.998
same,UISO_AUC,[8]; [22],537.732
same,CRL7250_AUC,[9]; [23],426.76
same,HEK293T_AUC,[10]; [24],447.539
same,VP-MCC_Avg_AUC,[11]; NPC library,320.898
same,Control-VP-MCC,[11]; [25],136.666
same,MCC13_AUC,[12]; [26],504.961
same,NIH3T3_AUC,[13]; [27],484.889
same,MCC26_AUC,[14]; [28],535.626
same,Control_Avg_AUC,[15]; NPC library,457.564
Clc1ccc(C(Cn2ccnc2)OCc2ccsc2Cl)c(Cl)c1 (centres unmarked) [Tioconazole],Control-MCC,[1]; [16],97.8731
same,MCC_Avg_AUC,[2]; NPC library,369.824
same,VN-MCC_Avg_AUC,[3]; NPC library,459.387
same,Control-VN-MCC,[3]; [17],8.311
same,MKL1_AUC,[4]; [18],310.311
same,WAGA_AUC,[5]; [19],248.268
same,HACAT_AUC,[6]; [20],488.14
same,MKL2_AUC,[7]; [21],282.208
same,UISO_AUC,[8]; [22],437.585
same,CRL7250_AUC,[9]; [23],480.608
same,HEK293T_AUC,[10]; [24],456.797
same,VP-MCC_Avg_AUC,[11]; NPC library,280.262
same,Control-VP-MCC,[11]; [25],187.435
same,MCC13_AUC,[12]; [26],438.775
same,NIH3T3_AUC,[13]; [27],445.245
same,MCC26_AUC,[14]; [28],501.8
same,Control_Avg_AUC,[15]; NPC library,467.697
c1ccc(CC2=NCCN2)cc1 [Tolazoline hydrochloride],Control-MCC,[1]; [16],39.4026
same,MCC_Avg_AUC,[2]; NPC library,420.949
same,VN-MCC_Avg_AUC,[3]; NPC library,433.01
same,Control-VN-MCC,[3]; [17],27.3412
same,MKL1_AUC,[4]; [18],395.582
same,WAGA_AUC,[5]; [19],433.154
same,HACAT_AUC,[6]; [20],471.166
same,MKL2_AUC,[7]; [21],397.927
same,UISO_AUC,[8]; [22],451.588
same,CRL7250_AUC,[9]; [23],475.841
same,HEK293T_AUC,[10]; [24],454.352
same,VP-MCC_Avg_AUC,[11]; NPC library,408.888
same,Control-VP-MCC,[11]; [25],51.4641
same,MCC13_AUC,[12]; [26],452.083
same,NIH3T3_AUC,[13]; [27],440.048
same,MCC26_AUC,[14]; [28],395.361
same,Control_Avg_AUC,[15]; NPC library,460.352
CC[C@@]1(O)C(=O)OCc2c1cc1n(c2=O)Cc2cc3c(CN(C)C)c(O)ccc3nc2-1 [Topotecan HCl],Control-MCC,"[1]; MIPE library, Control AUC minus MCC AUC (therapeutic window), sheet S2D",77.6607
same,Control-MCC,"[1]; MIPE library, Control AUC minus MCC AUC (therapeutic window), sheet S2E",77.6607
same,Control-MCC,[1]; [16],81.3959
same,MCC_Avg_AUC,"[2]; MIPE library, sheet S2D",267.463
same,MCC_Avg_AUC,"[2]; MIPE library, sheet S2E",267.463
same,MCC_Avg_AUC,[2]; NPC library,219.265
same,Control-VN-MCC,"[3]; MIPE library, Control AUC minus VN-MCC AUC (therapeutic window), sheet S2D",42.4232
same,Control-VN-MCC,"[3]; MIPE library, Control AUC minus VN-MCC AUC (therapeutic window), sheet S2E",42.4232
same,VN-MCC_Avg_AUC,"[3]; MIPE library, sheet S2D",302.701
same,VN-MCC_Avg_AUC,"[3]; MIPE library, sheet S2E",302.701
same,VN-MCC_Avg_AUC,[3]; NPC library,272.239
same,Control-VN-MCC,[3]; [17],28.4215
same,MKL1_AUC,[4]; [29],269.988
same,MKL1_AUC,[4]; [30],269.988
same,MKL1_AUC,[4]; [18],185.429
same,Area under the dose-response curve (AUC) MKL-1 Replicate 1,"[4]; follow-up screen, MKL-1, replicate 1",222.0
same,Area under the dose-response curve (AUC) MKL-1 Replicate 2,"[4]; follow-up screen, MKL-1, replicate 2",224.3
same,Area under the dose-response curve (AUC) MKL-1 Replicate 3,"[4]; follow-up screen, MKL-1, replicate 3",226.9
same,WAGA_AUC,[5]; [29],175.987
same,WAGA_AUC,[5]; [30],175.987
same,WAGA_AUC,[5]; [19],138.765
same,Area under the dose-response curve (AUC) WAGA Replicate 1,"[5]; follow-up screen, WAGA, replicate 1",206.9
same,Area under the dose-response curve (AUC) WAGA Replicate 2,"[5]; follow-up screen, WAGA, replicate 2",188.0
same,Area under the dose-response curve (AUC) WAGA Replicate 3,"[5]; follow-up screen, WAGA, replicate 3",185.4
same,HACAT_AUC,[6]; [31],331.992
same,HACAT_AUC,[6]; [32],331.992
same,HACAT_AUC,[6]; [20],242.195
same,MKL2_AUC,[7]; [29],250.703
same,MKL2_AUC,[7]; [30],250.703
same,MKL2_AUC,[7]; [21],174.677
same,Area under the dose-response curve (AUC) MKL-2 Replicate 1,"[7]; follow-up screen, MKL-2, replicate 1",184.1
same,Area under the dose-response curve (AUC) MKL-2 Replicate 2,"[7]; follow-up screen, MKL-2, replicate 2",181.9
same,Area under the dose-response curve (AUC) MKL-2 Replicate 3,"[7]; follow-up screen, MKL-2, replicate 3",262.9
same,UISO_AUC,[8]; [29],243.367
same,UISO_AUC,[8]; [30],243.367
same,UISO_AUC,[8]; [22],244.938
same,Area under the dose-response curve (AUC) UISO Replicate 1,"[8]; follow-up screen, UISO, replicate 1",203.8
same,Area under the dose-response curve (AUC) UISO Replicate 2,"[8]; follow-up screen, UISO, replicate 2",226.9
same,Area under the dose-response curve (AUC) UISO Replicate 3,"[8]; follow-up screen, UISO, replicate 3",223.1
same,CRL7250_AUC,[9]; [31],391.937
same,CRL7250_AUC,[9]; [32],391.937
same,CRL7250_AUC,[9]; [23],360.108
same,HEK293T_AUC,[10]; [31],287.732
same,HEK293T_AUC,[10]; [32],287.732
same,HEK293T_AUC,[10]; [24],225.562
same,Control-VP-MCC,"[11]; MIPE library, Control AUC minus VP-MCC AUC (therapeutic window), sheet S2D",112.898
same,Control-VP-MCC,"[11]; MIPE library, Control AUC minus VP-MCC AUC (therapeutic window), sheet S2E",112.898
same,VP-MCC_Avg_AUC,"[11]; MIPE library, sheet S2D",232.226
same,VP-MCC_Avg_AUC,"[11]; MIPE library, sheet S2E",232.226
same,VP-MCC_Avg_AUC,[11]; NPC library,166.29
same,Control-VP-MCC,[11]; [25],134.37
same,MCC13_AUC,[12]; [29],336.51
same,MCC13_AUC,[12]; [30],336.51
same,NIH3T3_AUC,[13]; [31],368.835
same,NIH3T3_AUC,[13]; [32],368.835
same,NIH3T3_AUC,[13]; [27],374.778
same,MCC26_AUC,[14]; [29],328.226
same,MCC26_AUC,[14]; [30],328.226
same,MCC26_AUC,[14]; [28],267.734
same,Area under the dose-response curve (AUC) MCC26 Replicate 1,"[14]; follow-up screen, MCC26, replicate 1",273.0
same,Area under the dose-response curve (AUC) MCC26 Replicate 2,"[14]; follow-up screen, MCC26, replicate 2",257.6
same,Area under the dose-response curve (AUC) MCC26 Replicate 3,"[14]; follow-up screen, MCC26, replicate 3",280.5
same,Control_Avg_AUC,"[15]; MIPE library, sheet S2D",345.124
same,Control_Avg_AUC,"[15]; MIPE library, sheet S2E",345.124
same,Control_Avg_AUC,[15]; NPC library,300.661
